According to patent US20110237549A1, “MODULATORS OF RNA RIBOSWITCHES” (MEMORIAL SLOAN KETTERING CANCER CENTER, priority 2008, published 2011):

Tests used:
[1] = system: 265-nucleotide full-length T. maritima lysine riboswitch; assay: primer extension assay (reverse transcriptase pausing at A169); type: biochemical, Thermotoga maritima
Description: FIG. 39. Interactions of lysine and its analogs with the T. maritima lysine riboswitch studied by primer extension. a and b, Representative gels of riboswitch titration by lysine (a) and AEC (b). Reverse transcriptase (RT) pauses three nucleotides prior to the j unction at A169 in the context of the full-length riboswitch if the riboswitch-binding ligand is present in the reaction mixture. c, Representative titration experiments used for calculations of the ligand concentration (FIG. 4c) at which RT pausing is half-maximally attained. The experimental data points for lysine and AEC are from panels (a) and (b). The data were fitted to equation (1), which is based on the equation describing a bimolecular equilibrium, by the nonlinear least squares analysis. In the equation
θ is the fraction of RT pausing, No and Lo are RNA and ligand concentrations, respectively, and P50 is the apparent ligand concentration at which RT pausing is half-maximally attained. The P50 value for the lysine-induced RT pausing 5.50±0.53/−1M (mean±s.d.) (n=2) is similar to the Kd value 4.03±0.34/−1M (mean±s.d.) (n=2) determined by the equilibrium dialysis assay. The relative differences between the P50 values for lysine and its analogs are in overall agreement with the relative differences obtained from the Kd values for lysine and its analogs determined for the B. subtilis lysine riboswitch in ref. 5.
Primer extension experiments were performed using 265-nucleotide full-length riboswitch. The 32P-labelled 13-mer DNA oligonucleotide (100,000 c.p.m.), complementary to nucleotides 253-265 of RNA, was annealed to the 39 end of RNA (final RNA concentration […] in the assay). Primer extension was conducted in […] volume with 40 U of moloney murine leukaemia virus reverse transcriptase in 50 mM Na-HEPES, pH 7.9, 2 mM MgCl2, and variable concentrations of NaCl and KCl (FIG. 4), with or without a tenfold excess of lysine over RNA. After 30 min incubation at 37° C., the reactions were precipitated with ethanol, dissolved in loading buffer and analysed by 10% PAGE. Efficiency of lysine-induced pausing of reverse transcriptase at nucleotide A169 was quantified using FLA-7000 PhosphorImager and Image Gauge software (Fujifilm). Band intensities from independent experiments were averaged after gel-loading correction, background subtraction and normalization. The primer extension assay in the presence of lysine analogues was performed in 50 mM Na-HEPES, pH 7.9, 2 mM MgCl2, 50 mM KCl, and lysine analogues in the range 1028-1022 M. The data were fitted using a bimolecular equilibrium equation (Supplementary FIG. 12) and the resulting P50 values are reported in FIG. 4c. Reverse transcriptase sequencing reactions were run in parallel.

[2] = target: 220-nucleotide full-length F. nucleatum FMN riboswitch; assay: fluorescent binding assay with the 220-nucleotide full-length F. nucleatum impX FMN riboswitch; set-up: species or system Fusobacterium nucleatum; details: 220-nucleotide RNA; read-out: Kd (mean±s.d.)
[3] = system: 112-nucleotide F. nucleatum FMN riboswitch; assay: fluorescent binding assay with the 112-nucleotide F. nucleatum FMN riboswitch; details: for Kd: read-out: dissociation constants (mean s.d.), 112-nucleotide riboswitch, 2 mM MgCl2 and 100 mM KCl
[4] = system: mRNA that contains the FMN riboswitch; details: used at a 17-fold higher concentration than FMN; cited from earlier work
[5] = system: 143-nucleotide B. subtilis FMN riboswitch; assay: fluorescent binding assay with the 143-nucleotide B. subtilis FMN riboswitch; details: Bacillus subtilis riboswitch
Procedure: FIG. 9. The metabolite-sensing domain of the B. subtilis FMN riboswitch. a, The sequence of the 143-nucleotide fragment of B. subtilis riboswitch 5 is presented as a secondary structure schematic, which is based on the consensus secondary structure of the FMN riboswitches with small corrections from the three-dimensional structure of the F nucleatum riboswitch. b, Binding of FMN and its analogs to the 143-nucleotide B. subtilis FMN riboswitch. All measurements were performed using fluorescent assay.

[6] = system: T. maritima lysine riboswitch; assay: equilibrium dialysis, T. maritima lysine riboswitch; type: binding, Thermotoga maritima
Procedure: (§1) The assay was performed as described in Sudarsan, et al., An mRNA structure in bacteria that controls gene expression by binding lysine, Genes Dev. 17:2688-2697 (2003) using 5 kDa DispoEquilibrium DIALYZERS (Harvard Apparatus). In brief, […] RNA (from 0.001 to 20 mM) in the in-line probing buffer was placed in chamber A of the dialyser and equilibrated for 16 h at room temperature against chamber B containing […] 3H-labelled lysine (1 nM; 6,000 c.p.m.) in the same buffer. The amount of bound lysine was calculated by subtracting the radioactivity counts of chamber B from chamber A. The data were fitted using a bimolecular equilibrium equation, assuming that the free lysine concentration is negligible.

[7] = system: B. subtilis lysine riboswitch; assay: equilibrium dialysis, B. subtilis lysine riboswitch; type: binding; details: Bacillus subtilis riboswitch
Procedure: as §1

NCCSC[C@H](N)C(=O)O [AEC, S-(2-aminoethyl)-L-cysteine]
binding to the riboswitch relative to lysine in primer extension [1]: weaker binding

Cc1cc2nc3c(=O)[nH]c(=O)nc-3n(C[C@H](O)[C@H](O)[C@H](O)COP(=O)(O)O)c2cc1C [FMN, flavin mononucleotide]
Kd [2]: 0.134 ± 0.0139 µM
binding to the riboswitch in the presence of cobalt hexamine ([3]; cobalt hexamine in place of Mg2+): equally well
reduction of binding affinity in the presence of iridium hexamine ([3]; iridium hexamine in place of Mg2+): about 15 fold

N=C(N)NCCCC[C@H](N)C(=O)O [L-homoarginine]
binding to the riboswitch relative to lysine in primer extension [1]: weaker interactions than lysine

CC(=N)NCCCC[C@H](N)C(=O)O [N6-1-iminoethyl-L-lysine]
binding to the riboswitch relative to lysine in primer extension [1]: weaker interactions than lysine

NCCOC[C@H](N)C(=O)O [L-4-oxalysine]
binding to the riboswitch relative to lysine in primer extension [1]: weaker binding

Cc1cc2nc3c(=O)[nH]c(=O)nc-3n(C[C@H](O)[C@H](O)[C@H](O)COP(=O)(O)OP(=O)(O)OC[C@H]3O[C@@H](n4cnc5c(N)ncnc54)[C@H](O)[C@@H]3O)c2cc1C [FAD, flavin adenine dinucleotide]
inhibition of transcription in vitro [4]: inhibited

Cc1cc2nc3c(=O)[nH]c(=O)nc-3n(C[C@H](O)[C@H](O)[C@H](O)CO)c2cc1C [riboflavin]
decrease of binding affinity compared with binding of FMN [5]: about 1,000 fold
decrease of binding affinity compared with binding of FMN ([3]; F. nucleatum riboswitch): about 1,000 fold
Kd [3]: 39.8 µM

Cc1cc2nc3c(=O)[nH]c(=O)nc-3n(C)c2cc1C [lumiflavin]
effect of additional removal of the ribityl moiety on binding affinity ([3]; compared with riboflavin): reduces binding affinity to only a very small extent
Kd [3]: 59 µM

NCCCC[C@H](N)C(=O)O [lysine, L-lysine]
decrease of reverse transcriptase pause after replacement of K+ by Na+ ([1]; in the presence of lysine): 33 fold
lysine binding affinity when K+ was omitted or replaced by Na+ [6]: significantly decreased
lysine binding affinity when K+ was omitted or replaced by Na+ [7]: significantly decreased
